In ChEMBL document CHEMBL4152224, “The Identification of Potent, Selective, and Orally Available Inhibitors of Ataxia Telangiectasia Mutated (ATM) Kinase: The Discovery of AZD0156 (8-{6-[3-(Dimethylamino)propoxy]pyridin-3-yl}-3-methyl-1-(tetrahydro-2 H-pyran-4-yl)-1,3-dihydro-2 H-imidazo[4,5- c]quinolin-2-one)” (J Med Chem, 2018):
In brackets after ≈: the same amount, converted by molar mass. Activity calls are given as the source filed them. The calls are words filed in the database; no cut-off is given here.

Assays:
[1] = Apparent permeability across apical to basolateral side in MDCK cells overexpressing MDR1; format: ADME, cell-based, Canis lupus familiaris; conditions: dog
[2] = Apparent permeability across apical to basolateral side in human Caco2 cells; format: ADME, cell-based; conditions: Caco-2
[3] = Thermodynamic solubility of the compound in 0.1M aqueous phosphate buffer at pH 7.4 after 24 hrs by LC-UV analysis; format: physicochemical; conditions: read-out: Therm_solubility
[4] = Intrinsic clearance in human hepatocytes assessed per million cells
[5] = molecular target: Serine-protein kinase ATM (Homo sapiens, UniProt Q13315)
[6] = Dissociation constant, pKa of the compound; format: physicochemical
[7] = Intrinsic clearance in rat hepatocytes assessed per million cells
[8] = Buffer/octanol partition coefficient, log D of the compound at pH 7.4 by shake flask method; format: physicochemical
[9] = molecular target: Serine/threonine-protein kinase ATR (Homo sapiens, UniProt Q13535)
in vitro = conditions: dog, MDCK-MDR1
Description: Efflux ratio of apparent permeability across basolateral to apical over apical to basolateral side in MDCK cells overexpressing MDR1

[10] = molecular target: Voltage-gated inwardly rectifying potassium channel KCNH2 (Homo sapiens, UniProt Q12809); test: Inhibition of human ERG by electrophysiology assay
[11] = Solubility of the compound in simulated gastric fluid; format: physicochemical
Mus musculus [12] = test: Toxicity in immunocompromised mouse xenografted with human HBCx-10 cells at 5 mg/kg, po qd administered on days 1 to 3 of weekly cycle in presence of olaparib; format: organism-based; conditions: in vivo
SW-620 [13] = test: Potentiation of irinotecan-induced tumor regression against human SW620 cells xenografted in immunocompromised mouse at 20 mg/kg, po qd administered on days 2 to 4 of weekly cycle; format: functional, organism-based
[14] = Cmax in patient with solid tumor at 15 mg, po bid by LC-MS/MS analysis; format: ADME, organism-based; set-up: dose 15 mg, route oral; conditions: human, in vivo
[15] = Oral bioavailability in rat; format: ADME, organism-based; conditions: in vivo
[16] = Fraction unbound in rat plasma
[17] = Tmax in patient with solid tumor at 15 mg, po bid by LC-MS/MS analysis; format: ADME, organism-based; conditions: human, in vivo
Cytochrome P450 2D6 = Cytochrome P450 2D6 (Homo sapiens, UniProt P10635); test: Inhibition of human CYP2D6; format: ADME
[18] = Volume of distribution at steady state in rat; format: ADME, organism-based; conditions: in vivo, read-out: Vdss
[19] = AUC (0 to 12 hrs) in patient with solid tumor at 30 mg, po bid by LC-MS/MS analysis; format: ADME, organism-based; set-up: time < 12 hr, dose 30 mg, route oral; conditions: human, in vivo
[20] = molecular target: Phosphatidylinositol 4,5-bisphosphate 3-kinase catalytic subunit beta isoform (Homo sapiens, UniProt P42338); test: Inhibition of human PI3Kbeta (P118 to S1070 residues) expressed in mammalian expression system
SW-620 [21] = test: Antitumor activity against human SW620 cells xenografted in immunocompromised mouse assessed as tumor regression at 20 mg/kg, po qd administered on days 2 to 4 of weekly cycle; format: functional, organism-based
[22] = Solubility of the compound in FaSSIF; format: physicochemical
[23] = AUC (0 to 12 hrs) in patient with solid tumor at 15 mg, po bid by LC-MS/MS analysis; format: ADME, organism-based; set-up: time < 12 hr, dose 15 mg, route oral; conditions: human, in vivo
[24] = Tmax in patient with solid tumor at 120 mg, po bid by LC-MS/MS analysis; format: ADME, organism-based; conditions: human, in vivo
[25] = molecular target: T1, Phosphatidylinositol 4,5-bisphosphate 3-kinase catalytic subunit delta isoform (Homo sapiens, UniProt O00329); test: Inhibition of human PI3Kdelta (R108 to Q1044 residues) expressed in mammalian expression system
T1 sequence (O00329 whole entry): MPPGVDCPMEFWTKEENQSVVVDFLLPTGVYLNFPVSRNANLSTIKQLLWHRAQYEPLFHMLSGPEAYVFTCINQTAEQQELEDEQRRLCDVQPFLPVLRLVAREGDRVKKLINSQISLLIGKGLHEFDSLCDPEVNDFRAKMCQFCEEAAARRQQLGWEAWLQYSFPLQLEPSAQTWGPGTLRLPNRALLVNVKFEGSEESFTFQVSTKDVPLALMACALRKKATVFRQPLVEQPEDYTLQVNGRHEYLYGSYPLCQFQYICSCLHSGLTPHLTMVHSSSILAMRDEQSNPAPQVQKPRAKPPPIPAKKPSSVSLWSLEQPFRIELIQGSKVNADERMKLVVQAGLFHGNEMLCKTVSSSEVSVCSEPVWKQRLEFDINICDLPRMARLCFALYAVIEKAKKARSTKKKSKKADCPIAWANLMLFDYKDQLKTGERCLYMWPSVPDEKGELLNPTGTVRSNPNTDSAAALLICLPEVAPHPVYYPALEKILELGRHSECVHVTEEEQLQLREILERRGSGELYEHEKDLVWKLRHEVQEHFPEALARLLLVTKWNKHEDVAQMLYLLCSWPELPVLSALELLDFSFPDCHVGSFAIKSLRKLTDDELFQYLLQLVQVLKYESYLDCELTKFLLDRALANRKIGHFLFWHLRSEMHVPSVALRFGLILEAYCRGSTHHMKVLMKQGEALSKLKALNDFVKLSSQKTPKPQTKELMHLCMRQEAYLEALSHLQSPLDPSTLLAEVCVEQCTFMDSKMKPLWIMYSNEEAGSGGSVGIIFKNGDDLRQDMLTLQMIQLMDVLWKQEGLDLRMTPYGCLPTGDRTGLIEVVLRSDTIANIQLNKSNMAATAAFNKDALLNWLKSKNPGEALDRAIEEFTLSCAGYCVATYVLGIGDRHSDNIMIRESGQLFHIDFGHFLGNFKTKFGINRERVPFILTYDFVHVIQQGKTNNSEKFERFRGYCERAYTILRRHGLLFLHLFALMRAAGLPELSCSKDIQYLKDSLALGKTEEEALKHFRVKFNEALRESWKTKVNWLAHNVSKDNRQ

[26] = Cmax in patient with solid tumor at 120 mg, po bid by LC-MS/MS analysis; format: ADME, organism-based; set-up: dose 120 mg, route oral; conditions: human, in vivo
Mus musculus [27] = test: Toxicity in immunocompromised mouse xenografted with human SW620 cells at 20 mg/kg, po qd administered on days 2 to 4 of weekly cycle in presence of irinotecan; format: organism-based; conditions: in vivo
[28] = Cmax in patient with solid tumor at 30 mg, po bid by LC-MS/MS analysis; format: ADME, organism-based; set-up: dose 30 mg, route oral; conditions: human, in vivo
Cytochrome P450 2C19 = Cytochrome P450 2C19 (Homo sapiens, UniProt P33261); test: Inhibition of human CYP2C19; format: ADME
[29] = Solubility of the compound in phosphate buffer at pH 6.5; format: physicochemical
[30] = molecular target: Serine/threonine-protein kinase mTOR (Homo sapiens) (UniProt P42345); test: Inhibition of human m-TOR (L1382 to W2549 residues) expressed in mammalian expression system at 1 uM relative to control
[31] = AUC (0 to 12 hrs) in patient with solid tumor at 120 mg, po bid by LC-MS/MS analysis; format: ADME, organism-based; set-up: dose 120 mg, time < 12 hr, route oral; conditions: human, in vivo
[32] = Tmax in patient with solid tumor at 60 mg, po bid by LC-MS/MS analysis; format: ADME, organism-based; conditions: human, in vivo
[33] = Tmax in patient with solid tumor at 30 mg, po bid by LC-MS/MS analysis; format: ADME, organism-based; conditions: human, in vivo
Cytochrome P450 2C9 = Cytochrome P450 2C9 (Homo sapiens, UniProt P11712); test: Inhibition of human CYP2C9; format: ADME
[34] = molecular target: Phosphatidylinositol 4,5-bisphosphate 3-kinase catalytic subunit gamma isoform (Homo sapiens, UniProt P48736); test: Inhibition of human PI3Kgamma (S144 to A1102 residues) expressed in mammalian expression system
Homo sapiens = test: Potentiation of […]-induced tumor regression against human HBCx-10 cells xenografted in immunocompromised mouse at 5 mg/kg, po qd administered on days 1 to 3 of weekly cycle; format: functional, organism-based
Cytochrome P450 1A2 = molecular target: T2, Cytochrome P450 1A2 (Homo sapiens, UniProt P05177); test: Inhibition of human CYP1A2; format: ADME
T2 sequence (P05177 whole entry): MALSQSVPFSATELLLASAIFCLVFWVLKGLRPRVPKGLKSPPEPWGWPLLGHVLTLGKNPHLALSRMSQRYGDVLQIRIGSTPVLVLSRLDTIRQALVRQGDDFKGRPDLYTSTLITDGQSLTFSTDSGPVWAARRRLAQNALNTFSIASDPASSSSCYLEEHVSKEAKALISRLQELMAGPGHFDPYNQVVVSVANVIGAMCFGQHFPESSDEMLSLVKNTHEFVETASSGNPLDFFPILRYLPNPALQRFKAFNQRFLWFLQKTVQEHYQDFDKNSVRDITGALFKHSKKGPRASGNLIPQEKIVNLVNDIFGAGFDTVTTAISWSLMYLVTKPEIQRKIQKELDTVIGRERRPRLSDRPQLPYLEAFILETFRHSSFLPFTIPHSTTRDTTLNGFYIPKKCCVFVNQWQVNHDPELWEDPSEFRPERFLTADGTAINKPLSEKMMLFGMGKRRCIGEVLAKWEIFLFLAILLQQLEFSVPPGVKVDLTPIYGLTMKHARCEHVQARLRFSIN

[35] = Oral bioavailability in dog; format: ADME, organism-based, Canis lupus familiaris; conditions: in vivo
[36] = Cmax in patient with solid tumor at 60 mg, po bid by LC-MS/MS analysis; format: ADME, organism-based; set-up: dose 60 mg, route oral; conditions: human, in vivo
[37] = Volume of distribution at steady state in dog; format: ADME, organism-based, Canis lupus familiaris; conditions: in vivo, read-out: Vdss
[38] = AUC (0 to 12 hrs) in patient with solid tumor at 60 mg, po bid by LC-MS/MS analysis; format: ADME, organism-based; set-up: dose 60 mg, time < 12 hr, route oral; conditions: human, in vivo
[39] = Apparent permeability across apical to basolateral side in human Caco2 cells at pH 6.5; format: ADME, cell-based; conditions: Caco-2, pH 6.5
Cytochrome P450 3A4 = Cytochrome P450 3A4 (Homo sapiens, UniProt P08684); test: Inhibition of human CYP3A4; format: ADME

Serine/threonine-protein kinase ATR, sequence (Q13535 whole entry): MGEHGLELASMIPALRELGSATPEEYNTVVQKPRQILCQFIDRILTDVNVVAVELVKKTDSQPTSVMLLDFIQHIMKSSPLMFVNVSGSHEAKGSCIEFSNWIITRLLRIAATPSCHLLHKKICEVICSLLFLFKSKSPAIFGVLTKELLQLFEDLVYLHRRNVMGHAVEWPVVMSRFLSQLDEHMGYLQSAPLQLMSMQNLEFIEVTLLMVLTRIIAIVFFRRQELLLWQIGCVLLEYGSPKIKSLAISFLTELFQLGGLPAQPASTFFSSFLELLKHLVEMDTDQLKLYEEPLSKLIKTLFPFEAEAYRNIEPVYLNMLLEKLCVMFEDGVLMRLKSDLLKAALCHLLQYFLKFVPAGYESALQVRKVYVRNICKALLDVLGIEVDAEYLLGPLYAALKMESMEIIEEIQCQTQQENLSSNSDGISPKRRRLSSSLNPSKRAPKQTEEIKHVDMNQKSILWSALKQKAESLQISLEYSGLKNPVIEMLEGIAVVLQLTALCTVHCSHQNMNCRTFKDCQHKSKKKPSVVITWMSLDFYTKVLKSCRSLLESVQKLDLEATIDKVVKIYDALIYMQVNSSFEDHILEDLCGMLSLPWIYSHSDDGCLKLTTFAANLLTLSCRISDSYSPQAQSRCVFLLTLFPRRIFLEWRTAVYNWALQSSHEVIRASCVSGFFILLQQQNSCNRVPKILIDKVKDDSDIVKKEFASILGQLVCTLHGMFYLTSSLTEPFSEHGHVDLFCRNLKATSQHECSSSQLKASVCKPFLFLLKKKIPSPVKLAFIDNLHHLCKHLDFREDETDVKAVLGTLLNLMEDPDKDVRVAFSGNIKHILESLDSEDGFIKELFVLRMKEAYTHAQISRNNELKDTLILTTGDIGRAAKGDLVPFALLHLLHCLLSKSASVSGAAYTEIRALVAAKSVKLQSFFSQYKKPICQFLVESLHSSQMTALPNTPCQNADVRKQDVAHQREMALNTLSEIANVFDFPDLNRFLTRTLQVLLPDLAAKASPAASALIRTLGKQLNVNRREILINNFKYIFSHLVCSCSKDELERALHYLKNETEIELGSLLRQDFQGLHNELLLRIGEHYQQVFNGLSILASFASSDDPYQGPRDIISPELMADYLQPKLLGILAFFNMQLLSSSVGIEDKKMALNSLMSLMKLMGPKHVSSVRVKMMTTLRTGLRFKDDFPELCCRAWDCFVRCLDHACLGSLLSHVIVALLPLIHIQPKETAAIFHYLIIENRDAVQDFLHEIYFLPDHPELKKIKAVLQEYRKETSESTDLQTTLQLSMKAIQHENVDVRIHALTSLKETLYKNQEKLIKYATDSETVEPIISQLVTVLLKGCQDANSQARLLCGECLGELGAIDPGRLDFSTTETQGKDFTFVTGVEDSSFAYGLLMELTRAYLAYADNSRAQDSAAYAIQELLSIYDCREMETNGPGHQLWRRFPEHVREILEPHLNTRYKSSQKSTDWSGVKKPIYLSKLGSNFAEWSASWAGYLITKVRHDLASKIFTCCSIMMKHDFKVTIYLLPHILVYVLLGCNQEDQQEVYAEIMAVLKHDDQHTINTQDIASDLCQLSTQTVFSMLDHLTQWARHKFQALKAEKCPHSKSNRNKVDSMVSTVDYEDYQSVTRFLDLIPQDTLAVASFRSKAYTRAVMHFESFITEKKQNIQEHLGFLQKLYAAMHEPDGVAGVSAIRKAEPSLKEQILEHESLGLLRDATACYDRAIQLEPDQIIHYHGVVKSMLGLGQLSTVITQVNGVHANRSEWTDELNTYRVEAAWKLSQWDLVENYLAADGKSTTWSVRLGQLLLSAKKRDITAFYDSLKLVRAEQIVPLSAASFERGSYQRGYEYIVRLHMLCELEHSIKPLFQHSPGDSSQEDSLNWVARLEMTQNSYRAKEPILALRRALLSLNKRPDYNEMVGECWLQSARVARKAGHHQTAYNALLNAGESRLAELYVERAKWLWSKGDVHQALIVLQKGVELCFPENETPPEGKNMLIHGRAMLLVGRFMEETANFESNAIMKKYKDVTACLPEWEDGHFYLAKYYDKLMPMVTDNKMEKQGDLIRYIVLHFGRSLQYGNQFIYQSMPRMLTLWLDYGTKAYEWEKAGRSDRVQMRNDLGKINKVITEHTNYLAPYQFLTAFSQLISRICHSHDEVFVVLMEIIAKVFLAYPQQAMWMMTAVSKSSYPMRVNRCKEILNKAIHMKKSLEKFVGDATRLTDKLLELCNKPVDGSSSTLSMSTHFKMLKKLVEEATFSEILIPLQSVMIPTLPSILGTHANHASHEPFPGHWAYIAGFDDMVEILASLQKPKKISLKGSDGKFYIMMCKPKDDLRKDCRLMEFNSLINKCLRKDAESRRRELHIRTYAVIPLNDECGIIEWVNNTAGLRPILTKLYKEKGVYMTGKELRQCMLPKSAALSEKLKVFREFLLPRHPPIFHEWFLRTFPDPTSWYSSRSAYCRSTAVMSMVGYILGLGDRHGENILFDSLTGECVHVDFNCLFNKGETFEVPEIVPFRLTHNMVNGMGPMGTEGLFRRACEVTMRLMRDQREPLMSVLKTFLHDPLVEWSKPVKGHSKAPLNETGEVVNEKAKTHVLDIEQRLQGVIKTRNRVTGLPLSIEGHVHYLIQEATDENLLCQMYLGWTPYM
Phosphatidylinositol 4,5-bisphosphate 3-kinase catalytic subunit gamma isoform, sequence (P48736 whole entry, the tested form may be a part, canonical isoform): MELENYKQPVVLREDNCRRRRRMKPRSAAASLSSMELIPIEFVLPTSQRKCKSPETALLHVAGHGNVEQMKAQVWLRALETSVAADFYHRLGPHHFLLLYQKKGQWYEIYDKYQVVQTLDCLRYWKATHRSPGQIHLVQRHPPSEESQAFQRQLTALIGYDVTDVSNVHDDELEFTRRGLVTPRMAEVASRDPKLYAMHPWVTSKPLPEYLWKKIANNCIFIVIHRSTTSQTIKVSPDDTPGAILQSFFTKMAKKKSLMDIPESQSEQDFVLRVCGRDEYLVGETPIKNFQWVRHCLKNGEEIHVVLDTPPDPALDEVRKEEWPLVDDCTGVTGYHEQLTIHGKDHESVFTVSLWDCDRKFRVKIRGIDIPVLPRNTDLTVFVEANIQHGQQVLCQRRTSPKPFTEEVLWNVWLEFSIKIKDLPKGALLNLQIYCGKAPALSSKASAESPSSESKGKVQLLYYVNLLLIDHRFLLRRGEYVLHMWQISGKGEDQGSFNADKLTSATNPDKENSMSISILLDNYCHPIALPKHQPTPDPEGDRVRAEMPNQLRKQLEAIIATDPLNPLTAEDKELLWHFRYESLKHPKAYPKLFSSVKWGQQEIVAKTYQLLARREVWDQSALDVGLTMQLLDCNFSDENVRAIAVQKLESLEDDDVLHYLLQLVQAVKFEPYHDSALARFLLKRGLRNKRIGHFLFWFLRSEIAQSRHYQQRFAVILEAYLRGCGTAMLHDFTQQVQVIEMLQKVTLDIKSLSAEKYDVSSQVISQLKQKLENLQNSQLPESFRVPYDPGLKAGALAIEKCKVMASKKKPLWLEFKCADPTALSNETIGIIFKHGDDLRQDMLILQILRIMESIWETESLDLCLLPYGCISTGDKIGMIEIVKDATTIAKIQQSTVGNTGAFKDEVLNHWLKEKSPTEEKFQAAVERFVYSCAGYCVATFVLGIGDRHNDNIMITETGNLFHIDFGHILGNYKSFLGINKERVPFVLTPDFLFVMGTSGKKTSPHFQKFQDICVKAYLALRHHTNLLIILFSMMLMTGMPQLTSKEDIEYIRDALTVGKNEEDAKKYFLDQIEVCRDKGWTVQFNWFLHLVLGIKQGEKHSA
Voltage-gated inwardly rectifying potassium channel KCNH2, sequence (Q12809 whole entry): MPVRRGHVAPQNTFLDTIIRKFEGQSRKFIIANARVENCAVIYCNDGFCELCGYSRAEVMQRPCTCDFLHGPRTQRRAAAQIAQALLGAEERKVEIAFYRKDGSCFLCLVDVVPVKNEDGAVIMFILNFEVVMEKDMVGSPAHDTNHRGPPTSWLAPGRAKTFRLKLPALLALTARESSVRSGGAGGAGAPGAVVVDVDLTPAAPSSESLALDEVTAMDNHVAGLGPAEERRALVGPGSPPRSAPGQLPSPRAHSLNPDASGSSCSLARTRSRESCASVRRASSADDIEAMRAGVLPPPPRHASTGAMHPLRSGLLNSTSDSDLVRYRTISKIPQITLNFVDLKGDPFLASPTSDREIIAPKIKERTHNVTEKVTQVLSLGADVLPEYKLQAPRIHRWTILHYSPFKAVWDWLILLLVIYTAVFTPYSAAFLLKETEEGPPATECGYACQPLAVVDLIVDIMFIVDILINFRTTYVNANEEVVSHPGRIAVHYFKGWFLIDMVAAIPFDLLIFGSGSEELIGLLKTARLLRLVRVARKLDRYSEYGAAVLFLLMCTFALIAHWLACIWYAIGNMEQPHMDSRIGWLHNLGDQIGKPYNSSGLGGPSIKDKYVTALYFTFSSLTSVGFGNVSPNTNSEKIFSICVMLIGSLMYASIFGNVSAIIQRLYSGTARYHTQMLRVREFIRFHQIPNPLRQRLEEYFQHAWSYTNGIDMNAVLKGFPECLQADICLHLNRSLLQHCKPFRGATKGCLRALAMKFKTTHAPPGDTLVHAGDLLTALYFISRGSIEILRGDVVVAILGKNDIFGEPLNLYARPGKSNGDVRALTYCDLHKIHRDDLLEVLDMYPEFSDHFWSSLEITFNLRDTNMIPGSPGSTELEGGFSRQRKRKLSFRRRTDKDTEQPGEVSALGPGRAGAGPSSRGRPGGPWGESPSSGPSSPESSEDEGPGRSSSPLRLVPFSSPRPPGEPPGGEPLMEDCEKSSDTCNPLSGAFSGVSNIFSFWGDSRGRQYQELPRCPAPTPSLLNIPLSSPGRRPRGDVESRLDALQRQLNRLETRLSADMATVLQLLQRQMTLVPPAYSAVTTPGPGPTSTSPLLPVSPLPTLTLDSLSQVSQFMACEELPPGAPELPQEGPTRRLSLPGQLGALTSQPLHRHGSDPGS

NC(=O)c1cnc2ccc(-c3cccnc3)cc2c1NC1CCOCC1
Papp A→B [1]: 4.8 ×10⁻⁶ cm/s
Papp A→B [2]: 15 ×10⁻⁶ cm/s
solubility thermodynamic at 24 h [3]: > 610 µM
hepatocyte CLint [4]: < 4 µL/min/1e6 cells

CO[C@H]1C[C@@H](n2c(=O)n(C)c3cnc4ccc(-c5ccc(OCCCN6CCOCC6)nc5)cc4c32)C1
IC50 [5]: > 28 µM
pKa [6]: 6.7
hepatocyte CLint [7]: 28 µL/min/1e6 cells
logD [8]: 1.4
IC50 [9]: > 30 µM
solubility thermodynamic at 24 h [3]: 980 µM (≈ 494 µg/mL)

CO[C@H]1C[C@@H](n2c(=O)n(C)c3cnc4cc(F)c(-c5ccc(OCCN(C)C)nc5)cc4c32)C1
efflux ratio (in vitro): 1.6
IC50 [5]: 0.023 µM
IC50 [10]: > 33 µM
pKa [6]: 8.5
hepatocyte CLint [7]: 12 µL/min/1e6 cells
Papp A→B [1]: 16 ×10⁻⁶ cm/s
logD [8]: 2
IC50 [9]: > 30 µM
solubility thermodynamic at 24 h [3]: > 1000 µM
hepatocyte CLint [4]: 8.3 µL/min/1e6 cells

CN(C)CCCOc1ccc(-c2ccc3ncc4c(c3c2)n(C2CCOCC2)c(=O)n4C)cn1
solubility [11]: > 5000 µg/mL
Activity (Mus musculus [12]): Non-Toxic
Activity (SW-620 [13]): Active
Cmax [14]: 6.67 ng/mL
bioavailability [15]: 57%
pKa [6]: 9.6
fraction unbound [16]: 0.11
Tmax [17]: 2 h
IC50 (Cytochrome P450 2D6): > 30 µM
Papp A→B [1]: 6.6 ×10⁻⁶ cm/s
Vd [18]: 4.3 L/kg
AUC at 12 h [19]: 105 ng·h/mL
IC50 [20]: 1.8 µM
Activity (SW-620 [21]): inactive
Papp A→B [2]: 5.6 ×10⁻⁶ cm/s
logD [8]: 1.5
solubility [22]: > 5000 µg/mL
AUC at 12 h [23]: 40.4 ng·h/mL
Tmax [24]: 2.5 h
IC50 [25]: 0.27 µM
Cmax [26]: 58.8 ng/mL
Activity (Mus musculus [27]): Non-Toxic
Cmax [28]: 17.5 ng/mL
IC50 (Cytochrome P450 2C19): > 30 µM
solubility [29]: > 5000 µg/mL
inhibition [30]: 93%
AUC at 12 h [31]: 330 ng·h/mL
Tmax [32]: 2.5 h
Tmax [33]: 2 h
IC50 (Cytochrome P450 2C9): > 30 µM
IC50 [34]: 1.1 µM
Activity (Homo sapiens): Active
solubility thermodynamic at 24 h [3]: > 800 µM
IC50 (Cytochrome P450 1A2): > 30 µM
bioavailability [35]: 54%
Cmax [36]: 39.6 ng/mL
Vd [37]: 17.6 L/kg
AUC at 12 h [38]: 206 ng·h/mL
Papp A→B [39]: 19 ×10⁻⁶ cm/s
IC50 (Cytochrome P450 3A4): > 30 µM
